According to US20030225152A1, “3-(Arylamino)methylene-1, 3-dihydro-2h-indol-2-ones as kinase inhibitors” (priority 2001, published 2003):

Assays:
[1] = target: T1, cytoplasmic domain of the human VEGF receptor (VEGFR-2) (Homo sapiens, UniProt P35968); test: KDR Assay; type: biochemical; details: His-VEGFR-2; 3.6 μM ATP
T1 construct: The cytoplasmic domain of the human VEGF receptor (VEGFR-2) was expressed as a Histidine-tagged fusion protein; Histidine tag
Summary of the method: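 IC50 taken from blank-corrected OD492 curves of an anti-phosphotyrosine peroxidase ELISA. Reaction: 10 min, 25 °C, 3.6 μM ATP, 50 mM Hepes pH 7.4 with 20 mM MgCl2, 0.1 mM MnCl2 and 5% DMSO, on poly-Glu-Tyr-coated wells, started with insect-cell-expressed His-VEGFR-2 cytoplasmic domain.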

[2] = tested on: VEGF induced increases in intracellular calcium levels in HUVEC (human umbilical vein endothelial cells); test: VEGF Stimulated Ca++ Signal in vitro (FLIPR); type: cell-based; details: VEGF 5 ng/mL; for IC50: 0.01 to 10.0 μM
Summary of the method: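 IC50 values derive from % inhibition of the VEGF (5 ng/mL) calcium response, taken as max-min fluorescence at 516 nm in Fluo-4-loaded HUVEC. Compounds (0.1% DMSO final) were added 30 min before stimulation, at 10 μM or across 0.01–10.0 μM.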

T1 sequence (P35968 786-1356): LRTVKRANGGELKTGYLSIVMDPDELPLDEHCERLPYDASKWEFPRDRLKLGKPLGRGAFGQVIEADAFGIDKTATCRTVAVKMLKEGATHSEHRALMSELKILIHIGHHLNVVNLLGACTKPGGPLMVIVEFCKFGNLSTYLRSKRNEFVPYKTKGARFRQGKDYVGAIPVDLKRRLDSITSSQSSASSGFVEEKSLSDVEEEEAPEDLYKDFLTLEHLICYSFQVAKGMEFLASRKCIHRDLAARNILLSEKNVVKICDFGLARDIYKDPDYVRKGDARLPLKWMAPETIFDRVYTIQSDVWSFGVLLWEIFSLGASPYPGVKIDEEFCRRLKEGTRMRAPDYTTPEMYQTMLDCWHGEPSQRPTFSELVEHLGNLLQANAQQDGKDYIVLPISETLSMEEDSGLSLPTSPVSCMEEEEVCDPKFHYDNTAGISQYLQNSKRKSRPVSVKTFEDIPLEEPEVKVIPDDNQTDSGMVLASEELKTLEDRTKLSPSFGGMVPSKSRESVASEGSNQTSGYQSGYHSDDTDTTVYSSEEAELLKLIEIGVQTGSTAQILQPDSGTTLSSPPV

| SMILES | IC50 [1] [nM] | inhibition at 10 µM ([2]; Homo sapiens) [%] | IC50 ([2]; Homo sapiens) [nM] | IC50 [2] [nM] |
| --- | --- | --- | --- | --- |
| CSc1ccc(NC=C2C(=O)Nc3ccccc32)cc1 [Example 136, 3-[(4-Methylsulfanyl-phenylamino)-methylene]-1,3-dihydro-indol-2-one] | 490 | 63.7 | 2070 | – |
| CSc1ccc(NC=C2C(=O)Nc3cccc(C)c32)cc1 [Example 137, 4-Methyl-3-[(4-methylsulfanyl-phenylamino)-methylene]-1,3-dihydro-indol-2-one] | 270 | 65.4 | 1670 | – |
| CSc1ccc(NC=C2C(=O)Nc3ccc(Cl)cc32)cc1 [Example 138, 5-Chloro-3-[(4-methylsulfanyl-phenylamino)-methylene]-1,3-dihydro-indol-2-one] | 730 | 80.9 | 7070 | – |
| O=C(O)CCCc1ccc(NC=C2C(=O)Nc3ccccc32)cc1 [Example 139, 4-{4-[(2-Oxo-1,2-dihydro-indol-3-ylidenemethyl)-amino]-phenyl}-butyric acid] | 530 | 99.3 | 1620 | – |
| Cc1cccc2c1C(=CNc1ccc(CCCC(=O)O)cc1)C(=O)N2 [Example 140, 4-{4-[(4-Methyl-2-oxo-1,2-dihydro-indol-3-ylidenemethyl)-amino]-phenyl}-butyric acid] | 400 | 96.9 | – | – |
| O=C(O)CCc1cccc(NC=C2C(=O)Nc3ccccc32)c1 [Example 141, 3-{3-[(2-Oxo-1,2-dihydro-indol-3-ylidenemethyl)-amino]-phenyl}-propionic acid] | 510 | 92.6 | 2960 | – |
| Cc1cccc2c1C(=CNc1cccc(CCC(=O)O)c1)C(=O)N2 [Example 142, 3-{3-[(4-Methyl-2-oxo-1,2-dihydro-indol-3-ylidenemethyl)-amino]-phenyl}-propionic acid] | 210 | 99.3 | 4160 | – |
| O=C(O)CCc1cccc(NC=C2C(=O)Nc3ccc(Cl)cc32)c1 [Example 143, 3-{3-[(5-Chloro-2-oxo-1,2-dihydro-indol-3-ylidenemethyl)-amino]-phenyl}-propionic acid] | 520 | 66.9 | 7610 | – |
| O=C(O)CCc1ccc(NC=C2C(=O)Nc3ccccc32)cc1 [Example 144, 3-{4-[(2-Oxo-1,2-dihydro-indol-3-ylidenemethyl)-amino]-phenyl}-propionic acid] | 460 | 96.5 | 2700 | – |
| Cc1cccc2c1C(=CNc1ccc(CCC(=O)O)cc1)C(=O)N2 [Example 145, 3-{4-[(4-Methyl-2-oxo-1,2-dihydro-indol-3-ylidenemethyl)-amino]-phenyl}-propionic acid] | 190 | 98.7 | ≤ 1000 | 590 |
| O=C(O)CCc1ccc(NC=C2C(=O)Nc3ccc(Cl)cc32)cc1 [Example 146, 3-{4-[(5-Chloro-2-oxo-1,2-dihydro-indol-3-ylidenemethyl)-amino]-phenyl}-propionic acid] | 510 | 98.4 | 2070 | – |
| CCc1cccc(NC=C2C(=O)Nc3cccc(C)c32)c1 [Example 147, 3-[(3-Ethyl-phenylamino)-methylene]-4-methyl-1,3-dihydro-indol-2-one] | 150 | 71.6 | 5490 | – |
| CCc1ccc(NC=C2C(=O)Nc3ccc(Cl)cc32)cc1 [Example 149, 5-Chloro-3-[(4-ethyl-phenylamino)-methylene]-1,3-dihydro-indol-2-one] | 620 | 17.7 | – | – |
| O=C(O)CCCc1ccc(NC=C2C(=O)Nc3ccc(Cl)cc32)cc1 [Example 150, 4-{4-[(5-Chloro-2-oxo-1,2-dihydro-indol-3-ylidenemethyl)-amino]-phenyl}-butyric acid] | 300 | 90.9 | 1850 | – |
| CCc1ccc(NC=C2C(=O)Nc3cccc(C)c32)cc1 [Example 151, 3-[(4-Ethyl-phenylamino)-methylene]-4-methyl-1,3-dihydro-indol-2-one] | 460 | 50.8 | – | – |
| O=C1Nc2ccccc2C1=CNc1ccc(N2CCCCC2)cc1 [Example 158, 3-[(4-Piperidin-1-yl-phenylamino)-methylene]-1,3-dihydro-indol-2-one] | 390 | 97.5 | 1140 | – |
| CCN(CC)Cc1cc(NC=C2C(=O)Nc3ccccc32)ccc1O [Example 160, 3-[(3-Diethylaminomethyl-4-hydroxy-phenylamino)-methylene]-1,3-dihydro-indol-2-one] | 700 | 91.4 | 1290 | – |

| SMILES | IC50 [1] [nM] | inhibition at 10 µM ([2]; Homo sapiens) [%] | IC50 ([2]; Homo sapiens) [nM] | IC50 [2] [nM] |
| --- | --- | --- | --- | --- |
| O=C1Nc2ccc(F)cc2C1=CNc1ccc2[nH]ccc2c1 [Example 162, 5-Fluoro-3-[(1 h-indol-5-ylamino)-methylene]-1,3-dihydro-indol-2-one] | 300 | 89.9 | 1050 | – |
| O=C1Nc2ccc(F)cc2C1=CNc1ccc2cn[nH]c2c1 [Example 163, 5-Fluoro-3-[(1 h-indazol-6-ylamino)-methylene]-1,3-dihydro-indol-2-one] | 320 | 95.3 | ≤ 1000 | 850 |
| COc1ccc(NC=C2C(=O)Nc3ccc(F)cc32)cc1O [Example 164, 5-Fluoro-3-[(3-hydroxy-4-methoxy-phenylamino)-methylene]-1,3-dihydro-indol-2-one] | 380 | 98.8 | – | – |
| O=C(O)CCc1ccc(NC=C2C(=O)Nc3ccc(F)cc32)cc1 [Example 165, 3-{4-[(5-Fluoro-2-oxo-1,2-dihydro-indol-3-ylidenemethyl)-amino]-phenyl}-propionic acid] | 360 | 99.3 | 1340 | – |
| NS(=O)(=O)c1ccc(NC=C2C(=O)Nc3ccc(F)cc32)cc1 [Example 166, 4-[(5-Fluoro-2-oxo-1,2-dihydro-indol-3-ylidenemethyl)-amino]-benzenesulfonamide] | 660 | 49.2 | – | – |
| CN1CCN(c2ccc(NC=C3C(=O)Nc4ccc(F)cc43)cc2)CC1 [Example 168, 5-Fluoro-3-{[4-(4-methyl-piperazin-1-yl)-phenylamino]-methylene}-1,3-dihydro-indol-2-one] | 140 | 94.3 | – | – |
| O=C1Nc2ccc(F)cc2C1=CNc1ccccc1 [Example 169, 5-Fluoro-3-phenylaminomethylene-1,3-dihydro-indol-2-one] | 610 | 93.4 | 1160 | – |
| NC(=O)c1ccc(NC=C2C(=O)Nc3ccc(F)cc32)cc1 [Example 170, 4-[(5-Fluoro-2-oxo-1,2-dihydro-indol-3-ylidenemethyl)-amino]-benzamide] | 410 | 96.7 | ≤ 1000 | 590 |
| CSc1ccc(NC=C2C(=O)Nc3ccc(F)cc32)cc1 [Example 171, 5-Fluoro-3-[(4-methylsulfanyl-phenylamino)-methylene]-1,3-dihydro-indol-2-one] | 430 | 38.1 | – | – |
| COc1ccc(NC=C2C(=O)Nc3ccc(F)cc32)cc1F [Example 172, 5-Fluoro-3-[(3-fluoro-4-methoxy-phenylamino)-methylene]-1,3-dihydro-indol-2-one] | 690 | 93.3 | 1400 | – |
| O=C1Nc2ccc(F)cc2C1=CNc1ccc2ncsc2c1 [Example 173, 3-(Benzothiazol-6-ylaminomethylene)-5-fluoro-1,3-dihydro-indol-2-one] | 520 | 94.5 | 1480 | – |
| O=C(O)Cc1ccc(NC=C2C(=O)Nc3ccc(F)cc32)cc1 [Example 174, {4-[(5-Fluoro-2-oxo-1,2-dihydro-indol-3-ylidenemethyl)-amino]-phenyl}-acetic acid] | 840 | 76.4 | 6020 | – |
| O=C(O)CCc1cccc(NC=C2C(=O)Nc3ccc(F)cc32)c1 [Example 175, 3-{3-[(5-Fluoro-2-oxo-1,2-dihydro-indol-3-ylidenemethyl)-amino]-phenyl}-propionic acid] | 710 | 38 | – | – |
| CCc1cccc(NC=C2C(=O)Nc3ccc(F)cc32)c1 [Example 176, 3-[(3-Ethyl-phenylamino)-methylene]-5-fluoro-1,3-dihydro-indol-2-one] | 800 | 67.9 | 2540 | – |
| O=C1Nc2ccc(F)cc2C1=CNc1cccc(O)c1 [Example 177, 5-Fluoro-3-[(3-hydroxy-phenylamino)-methylene]-1,3-dihydro-indol-2-one] | 750 | 98.2 | ≤ 1000 | 740 |
| O=C1Nc2ccc(F)cc2C1=CNc1ccc(CO)cc1 [Example 178, 5-Fluoro-3-[(4-hydroxymethyl-phenylamino)-methylene]-1,3-dihydro-indol-2-one] | 530 | 98.8 | 1060 | – |
| Nc1ccc(NC=C2C(=O)Nc3ccccc32)cc1 [Example 180, 3-[(4-Amino-phenylamino)-methylene]-1,3-dihydro-indol-2-one] | 440 | 98.3 | 1030 | – |
